Patent US20020045780A1, “Biologically active spermidine analogues, pharmaceutical compositions and methods of treatment” (priority 1997, published 2002)
“Also recorded” adds a separate entry of the source. Counter-ions that a name gives are not always drawn. Like-named read-outs stand apart in the source and are kept apart here.

Legend:
L1210 cells [1] = assay: Polyamine pool analysis in L1210 cells; assay type: cell-based, murine; conditions: for Put / Spd / activity at 100 µM / activity at 500 µM / activity at 25 µM / activity at 125 µM / activity at 0.9 µM / activity at 4.5 µM: % of untreated control; for Put / Spd: Trihydrochloride; for activity at 100 µM / activity at 500 µM / activity at 25 µM / activity at 125 µM / activity at 0.9 µM / activity at 4.5 µM: Mus musculus; for Analogue: intracellular amount
Protocol: The following guidelines were adopted for studying the impact of the analogues on polyamine pools (Table 2). The measurements were made after a 48-hour exposure to the analogue, and two different concentrations of analogue were evaluated in each case.
(§1) The cells were washed twice with cold RPMI-1640, and the pellet was treated with 0.6 N HClO4 (1 ml/10^7 cells). Polyamine contents of the perchloric acid extracts were quantitated by HPLC of the DANSYL derivatives [Bergeron et al, J. Med. Chem., Vol. 37, supra].

[2] = system: S-adenosylmethionine decarboxylase (AdoMetDC); assay: AdoMetDC activity in treated L1210 cells; assay type: cell-based, murine; conditions: L1210, 1 μM at 6 hours
Protocol: (§2) On the basis of these studies, it was elected to evaluate the impact of the triamines on ODC and AdoMetDC at 4 and 6 hours, respectively.
(§3) ODC and AdoMetDC activities were determined as ^14CO2 released from [^14C]-carboxyl-labeled L-ornithine [Seely et al, “Ornithine Decarboxylase (Mouse Kidney),” Methods Enzymol., Vol. 94, pages 158-161 (1983)] or S-adenosyl-L-methionine [Pegg et al, “S-Adenosylmethionine Decarboxylase (Rat Liver),” Methods Enzymol., Vol. 94, pages 234-239 (1983)], respectively. Included in each assay were untreated L1210 cells as controls, as well as cells treated with DEHSPM, a drug having a known reproducible effect on each enzyme, as positive controls.

[3] = system: polyamine transport apparatus; assay: Competitive uptake determination: inhibition of [3H]spermidine transport into L1210 cells; assay type: cell-based, murine; conditions: analogue inhibition of spermidine transport
Protocol: The ability of the norspermidines, spermidines, homospermidines, 4,5- and 5,5-triamines to compete with radiolabeled SPD for uptake was evaluated (Table 1). The general trend is that the terminally alkylated triamines have higher Ki values than the unalkylated triamines and are thus less easily taken up by the cell. […] This is not completely true with the norspermidines and the 5,5 triamines. The relationship holds with methyl and ethyl but not for the propyl of the latter two systems. Finally, the number of methylenes separating the amines plays a role in determining polyamine uptake properties. In general the effectiveness with which the analogues compete for uptake is spermidines≈homospermidines>4,5 triamines>5,5 triamines>norspermidine.
The polyamine derivatives were studied for their ability to compete with [^3H]-SPD for uptake into L1210 cells [Bergeron et al, J. Med. Chem., Vol. 37, supra]. Lineweaver-Burk plots indicated a simple competitive inhibition with respect to SPD.

[4] = system: ornithine decarboxylase (ODC); assay: ODC activity in treated L1210 cells; assay type: cell-based, murine; conditions: L1210, 1 μM at 4 hours
Protocol: as §2, §3

[5] = system: spermidine/spermine acetyltransferase (SSAT); assay: SSAT activity in treated L1210 cells; assay type: cell-based, murine; conditions: L1210, 10 μM at 48 hours (triamine analogues)
From the text: Spermidine/spermine N^1-acetyltransferase activity was based on quantitation of [^14C]-N^1-acetylspermidine formed by acetylation of SPD with [^14C] acetyl coenzyme A according to the method of Libby et al [Biochem. Pharmacol., Vol. 38, supra]. Cells treated with DENSPM were positive controls.

L1210 cells [6] = assay: L1210 growth inhibition, IC50 determination; assay type: cell-based, murine
Protocol: Murine L1210 leukemia cells (ATCC CCL 219) were maintained in logarithmic growth in RPMI-1640 medium containing 10% fetal calf serum or a semi-synthetic equivalent, NuSerum, 2% HEPES-MOPS buffer and 1 mM aminoguanidine.

L1210 cells [7] = assay: Metabolic transformation of polyamine analogues by L1210 cells; assay type: in vitro ADME, murine; conditions: 48 hours, 100 μM analogue
Protocol: as §1

L1210 cells [8] = conditions: intracellular amount, 48 hours, cited from earlier work
[9] = 500 μM, 48 hours, listed as (4,5)
[10] = L1210, 48 h, 100 μM, read-out: Put
[11] = L1210, 48 h, 100 μM, read-out: Spd
[12] = L1210, 48 h, 100 μM, read-out: Spm
[13] = L1210, 48 h, 500 μM, read-out: Put
[14] = L1210, 48 h, 500 μM, read-out: Spd
[15] = L1210, 48 h, 500 μM, read-out: Spm
[16] = Mus musculus, L1210, 48 h, L1210, 48 hour exposure, read-out: IC50 48 hour
[17] = Mus musculus, L1210, 96 h, L1210, 96 hour exposure, read-out: IC50 96 hour
[18] = 500 μM, 48 hours, listed as (5,5)

Compound	Analogue (L1210 cells [1]; 100 μM, 48 hours) [nmol/10^6 cells]	Analogue (L1210 cells [1]; 500 μM, 48 hours) [nmol/10^6 cells]	IC50 (L1210 cells [6]; [16]) [µM]	IC50 (L1210 cells [6]; [17]) [µM]	Parent drug as % of total drug in the cell (L1210 cells [7]) [%]	Parent drug in L1210 cells (L1210 cells [7]) [pmols/10^6]	activity at 100 µM (L1210 cells [1]; [10]) [%]	activity at 100 µM (L1210 cells [1]; [11]) [%]	activity at 100 µM (L1210 cells [1]; [12]) [%]	activity at 500 µM (L1210 cells [1]; [13]) [%]	activity at 500 µM (L1210 cells [1]; [14]) [%]	activity at 500 µM (L1210 cells [1]; [15]) [%]	AdoMetDC activity, percent of untreated control [2]	Ki [3] [µM]	ODC activity, percent of untreated control [4]	SSAT activity, percent of untreated control [5]	also measured
NCCCCCNCCCCN [4,5-Triamine, 1,6,12-Triazadodecane Trihydrochloride]	3.02	3.20	> 100	0.15 to 0.2	–	–	0	1	53	0	0	35	57% of untreated control	1.4	19% of untreated control	410% of untreated control	Put (L1210 cells [1]; [9]): below detectable level; Spd (L1210 cells [1]; [9]): below detectable level
NCCCCCNCCCCCN [5,5-Triamine, 1,7,13-Triazatridecane Trihydrochloride]	2.58	2.50	~100	0.3 to 0.5	–	–	0	0	33	0	0	20	88% of untreated control	13.8	16% of untreated control	90% of untreated control	Put (L1210 cells [1]; [18]): below detectable level; Spd (L1210 cells [1]; [18]): below detectable level
NCCCCNCCCCN [HSPD, Homospermidine Trihydrochloride]	3.58	4.44	> 100	1.7 to 4	–	–	–	–	–	–	–	–	54% of untreated control	3.4	11% of untreated control	430% of untreated control	activity at 100 µM (L1210 cells [1]; L1210, 100 μM, 48 hours, read-out: Put): 0%; activity at 100 µM (L1210 cells [1]; L1210, 100 μM, 48 hours, read-out: Spd): 4%; activity at 100 µM (L1210 cells [1]; L1210, 100 μM, 48 hours, read-out: Spm): 32%; activity at 500 µM (L1210 cells [1]; L1210, 500 μM, 48 hours, read-out: Put): 0%; activity at 500 µM (L1210 cells [1]; L1210, 500 μM, 48 hours, read-out: Spd): 2%; activity at 500 µM (L1210 cells [1]; L1210, 500 μM, 48 hours, read-out: Spm): 21%
CCNCCCNCCCCNCCCN [MESPM]	–	–	–	–	–	–	–	–	–	–	–	–	–	–	–	–	Analogue, corresponding tetraamine (in parentheses) (L1210 cells [8]; 100 μM): (1.24) nmol/10^6 cells; Analogue, corresponding tetraamine (in parentheses) (L1210 cells [8]; 500 μM): (1.23) nmol/10^6 cells
NCCCNCCCN [NSPD, N—(3-aminopropyl)-1,3-propanediamine, reference compound]	–	–	0.9	0.5	–	–	–	–	–	–	–	–	62% of untreated control	7.2	11% of untreated control	150% of untreated control	activity at 0.9 µM (L1210 cells [1]; L1210, 0.9 μM, 48 hours, read-out: Put): 38%; activity at 0.9 µM (L1210 cells [1]; L1210, 0.9 μM, 48 hours, read-out: Spd): 44%; activity at 0.9 µM (L1210 cells [1]; L1210, 0.9 μM, 48 hours, read-out: Spm): 113%; activity at 4.5 µM (L1210 cells [1]; L1210, 4.5 μM, 48 hours, read-out: Put): 0%; activity at 4.5 µM (L1210 cells [1]; L1210, 4.5 μM, 48 hours, read-out: Spd): 12%; activity at 4.5 µM (L1210 cells [1]; L1210, 4.5 μM, 48 hours, read-out: Spm): 83%; Analogue (L1210 cells [1]; 0.9 μM, 48 hours): 1.09 nmol/10^6 cells; Analogue (L1210 cells [1]; 4.5 μM, 48 hours): 2.14 nmol/10^6 cells

Now from value to compound, other results behind:

Analogue (L1210 cells [1]; 100 μM, 48 hours) [nmol/10^6 cells]	Analogue (L1210 cells [1]; 500 μM, 48 hours) [nmol/10^6 cells]	IC50 (L1210 cells [6]; [16]) [µM]	IC50 (L1210 cells [6]; [17]) [µM]	Parent drug as % of total drug in the cell (L1210 cells [7]) [%]	Parent drug in L1210 cells (L1210 cells [7]) [pmols/10^6]	Compound	activity at 100 µM (L1210 cells [1]; [10]) [%]	activity at 100 µM (L1210 cells [1]; [11]) [%]	activity at 100 µM (L1210 cells [1]; [12]) [%]	activity at 500 µM (L1210 cells [1]; [13]) [%]	activity at 500 µM (L1210 cells [1]; [14]) [%]	activity at 500 µM (L1210 cells [1]; [15]) [%]	AdoMetDC activity, percent of untreated control [2]	Ki [3] [µM]	ODC activity, percent of untreated control [4]	SSAT activity, percent of untreated control [5]	also measured
–	–	25	0.3 to 0.4	100	4215	CCNCCCCNCCCCNCC [DEHSPD, N^1,N^9-Diethylhomospermidine Trihydrochloride]	–	–	–	–	–	–	90% of untreated control	19	47% of untreated control	640% of untreated control	activity at 25 µM (L1210 cells [1]; L1210, 48 h, 25 μM, read-out: Put): 0%; activity at 25 µM (L1210 cells [1]; L1210, 48 h, 25 μM, read-out: Spd): 6%; activity at 25 µM (L1210 cells [1]; L1210, 48 h, 25 μM, read-out: Spm): 114%; activity at 125 µM (L1210 cells [1]; L1210, 48 h, 125 μM, read-out: Put): 0%; activity at 125 µM (L1210 cells [1]; L1210, 48 h, 125 μM, read-out: Spd): 3%; activity at 125 µM (L1210 cells [1]; L1210, 48 h, 125 μM, read-out: Spm): 97%; Analogue (L1210 cells [1]; 25 μM, 48 hours): 4.61 nmol/10^6 cells; Analogue (L1210 cells [1]; 125 μM, 48 hours): 4.69 nmol/10^6 cells; N-Monodealkylation (result in words) (L1210 cells [7]; listed as DE-[4,4], Trihydrochloride): do not show significant N-deethylation; also recorded: no N-deethylation; IC50 (L1210 cells [6]; L1210, 48 hour exposure, Trihydrochloride, read-out: IC50 48 hour): 18 to 25 µM
3.26	3.69	> 100	30 to 35	90.1	3260	CCCNCCCCNCCCNCCC [DPSPD, N^1,N^8-Dipropylspermidine Trihydrochloride]	6	35	135	0	~10	99	–	25.6	75% of untreated control	1030% of untreated control	–
–	–	> 100	> 100	78.2	3051	CCNCCCNCCCN [MENSPD, monoethylnorspermidine]	–	–	–	–	–	–	58% of untreated control	34	42% of untreated control	390% of untreated control	Elaboration to tetraamine (result in words) (L1210 cells [7]; listed as ME-[3,3]): no evidence of a tetraamine elaboration metabolite; also recorded: no elaboration of N-Monoalkyl [3,3]
5.16	5.86	100	0.5 to 0.7	–	–	CCCNCCCCNCCCCN [MPHSPD, N^1-Propylhomospermidine Trihydrochloride]	0	2	82	0	0	66	59% of untreated control	5	20% of untreated control	570% of untreated control	–
